Key:
[1] = biological target: T1, Receptor tyrosine-protein kinase erbB-2 [1-775,'YVMA',776-1255] (Homo sapiens, UniProt P04626); assay: Inhibitory Activity of Compounds Against HER2 A775_G776insYVMA mutant enzyme
T1 construct: 1-775,'YVMA',776-1255
Protocol: The activity of the compounds of the present invention against HER mutant enzymes was measured using the HTRF system purchased by Cisbio as follows. As a HER2 mutant enzyme, the HER2 A775_G776insYVMA mutant enzyme was used by purchasing a recombinant protein provided by Carna Biosciences.The composition of the assay buffer used for activity measurement was 50 mM tris-HCl pH 7.5, 100 mM NaCl, 7.5 mM MgCl2, 3 mM KCl, 0.01% tween 20, 0.1% BSA, and 1 mM DTT. In addition thereto, the enzymatic reaction was performed using a peptide substrate labeled with ATP at a concentration of […] and biotin at a concentration of […]. The analysis of the activity inhibitory effect of the compounds on HER2 A775_G776insYVMA mutation was performed according to the following method.Component 1:4 μL of HER2 A775_G776insYVMA mutant enzymeComponent 2:2 μL of compound solutionComponent 3:4 μL of ATP and a biotin labeled peptideThe enzyme reaction begins by first mixing component 1 and component 2 and then adding component 3 thereto. After the reaction at 37° C. for 2 hours, […] of a measurement solution consisting of streptavidin-XL665 and a europium-labeled anti-phosphotyrosine antibody purchased from Cisbio was added to the enzyme reaction solution and reacted at room temperature for 1 hour. Finally, the ratio of fluorescence values at 615 nm and 665 nm was measured using Perkin-Elmer's Envision equipment to calculate enzyme activity and confirm the inhibitory ability of the compounds.

[2] = biological target: T2, Epidermal growth factor receptor [1-763,'FHEA',764-1210] (UniProt P00533); assay: Inhibitory Activity of Compounds Against EGFR Mutant Enzyme
T2 construct: 1-763,'FHEA',764-1210
Protocol: (§1) The activity of the compounds of the present invention against EGFR mutant enzymes was measured using the HTRF system purchased from Cisbio as follows. For an EGFR mutant enzyme, the EGFR del19 enzyme was a recombinant protein purchased from Carna Biosciences, and the EGFR A763_Y764insFHEA enzyme was a recombinant protein purchased from SignalChem, respectively.The composition of the assay buffer used for activity measurement was 50 mM tris-HCl pH 7.5, 100 mM NaCl, 7.5 mM MgCl2, 3 mM KCl, 0.01% tween 20, 0.1% BSA, and 1 mM DTT. An enzymatic reaction was performed using a peptide substrate labeled with ATP at a concentration of […] and biotin at a concentration of […]. The analysis of the inhibitory effect of the compounds on EGFR activity was performed according to the following method.Component 1:4 μL of EGFR mutant enzymeComponent 2:2 μL of compound solutionComponent 3:4 μL of ATP and a biotin labeled peptideThe enzyme reaction begins by first mixing component 1 and component 2 and then adding component 3 thereto. After the reaction at 37° C. for 2 hours, […] of a measurement solution consisting of streptavidin-XL665 and a europium-labeled anti-phosphotyrosine antibody purchased from Cisbio was added to the enzyme reaction solution and reacted at room temperature for 1 hour. Finally, the ratio of fluorescence values at 615 nm and 665 nm was measured using Perkin-Elmer's Envision instrument to calculate enzyme activity and confirm the inhibitory ability of the compounds.

[3] = biological target: T3, Epidermal growth factor receptor [DEL746-750] (Homo sapiens, UniProt P00533); assay: as above
T3 construct: gene EGFR
Protocol: as §1

[4] = biological target: T4, Epidermal growth factor receptor [DEL746-750] (Homo sapiens, UniProt P00533, DEL746-750); assay: as above
T4 construct: gene EGFR
Protocol: as §1

T2 sequence (P00533 with tags, fused parts or gaps INS763FHEA limits assumed): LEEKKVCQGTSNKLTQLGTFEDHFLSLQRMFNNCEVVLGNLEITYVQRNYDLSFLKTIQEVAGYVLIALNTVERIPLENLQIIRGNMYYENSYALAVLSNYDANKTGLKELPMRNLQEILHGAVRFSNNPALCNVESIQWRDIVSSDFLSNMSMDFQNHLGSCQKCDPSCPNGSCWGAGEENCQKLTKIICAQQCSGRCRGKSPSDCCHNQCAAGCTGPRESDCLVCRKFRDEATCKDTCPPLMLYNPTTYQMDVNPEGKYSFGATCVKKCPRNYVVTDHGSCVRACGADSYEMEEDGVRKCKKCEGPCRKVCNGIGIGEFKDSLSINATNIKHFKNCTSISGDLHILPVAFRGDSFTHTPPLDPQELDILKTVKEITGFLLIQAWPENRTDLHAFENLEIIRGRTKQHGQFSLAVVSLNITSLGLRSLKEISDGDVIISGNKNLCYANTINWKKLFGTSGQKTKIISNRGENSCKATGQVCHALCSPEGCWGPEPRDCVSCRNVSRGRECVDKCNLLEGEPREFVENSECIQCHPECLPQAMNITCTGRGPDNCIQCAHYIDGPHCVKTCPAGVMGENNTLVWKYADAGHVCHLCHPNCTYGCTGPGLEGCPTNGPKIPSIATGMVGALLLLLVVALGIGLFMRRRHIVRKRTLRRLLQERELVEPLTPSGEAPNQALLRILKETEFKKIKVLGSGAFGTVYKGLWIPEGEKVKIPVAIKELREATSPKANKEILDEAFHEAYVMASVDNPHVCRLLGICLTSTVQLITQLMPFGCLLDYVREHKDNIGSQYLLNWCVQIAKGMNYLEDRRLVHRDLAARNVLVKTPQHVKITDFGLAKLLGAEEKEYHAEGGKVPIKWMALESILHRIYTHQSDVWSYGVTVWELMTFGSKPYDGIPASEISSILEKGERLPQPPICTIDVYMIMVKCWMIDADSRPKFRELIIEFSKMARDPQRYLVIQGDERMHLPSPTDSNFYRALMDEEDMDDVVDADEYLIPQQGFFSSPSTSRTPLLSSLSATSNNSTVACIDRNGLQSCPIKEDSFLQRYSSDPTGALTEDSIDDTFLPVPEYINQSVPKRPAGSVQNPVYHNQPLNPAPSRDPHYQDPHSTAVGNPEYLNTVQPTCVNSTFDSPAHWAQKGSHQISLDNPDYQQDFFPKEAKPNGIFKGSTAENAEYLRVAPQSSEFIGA
T3 sequence (P00533 with tags, fused parts or gaps DEL746-750 limits assumed, stated change not applied): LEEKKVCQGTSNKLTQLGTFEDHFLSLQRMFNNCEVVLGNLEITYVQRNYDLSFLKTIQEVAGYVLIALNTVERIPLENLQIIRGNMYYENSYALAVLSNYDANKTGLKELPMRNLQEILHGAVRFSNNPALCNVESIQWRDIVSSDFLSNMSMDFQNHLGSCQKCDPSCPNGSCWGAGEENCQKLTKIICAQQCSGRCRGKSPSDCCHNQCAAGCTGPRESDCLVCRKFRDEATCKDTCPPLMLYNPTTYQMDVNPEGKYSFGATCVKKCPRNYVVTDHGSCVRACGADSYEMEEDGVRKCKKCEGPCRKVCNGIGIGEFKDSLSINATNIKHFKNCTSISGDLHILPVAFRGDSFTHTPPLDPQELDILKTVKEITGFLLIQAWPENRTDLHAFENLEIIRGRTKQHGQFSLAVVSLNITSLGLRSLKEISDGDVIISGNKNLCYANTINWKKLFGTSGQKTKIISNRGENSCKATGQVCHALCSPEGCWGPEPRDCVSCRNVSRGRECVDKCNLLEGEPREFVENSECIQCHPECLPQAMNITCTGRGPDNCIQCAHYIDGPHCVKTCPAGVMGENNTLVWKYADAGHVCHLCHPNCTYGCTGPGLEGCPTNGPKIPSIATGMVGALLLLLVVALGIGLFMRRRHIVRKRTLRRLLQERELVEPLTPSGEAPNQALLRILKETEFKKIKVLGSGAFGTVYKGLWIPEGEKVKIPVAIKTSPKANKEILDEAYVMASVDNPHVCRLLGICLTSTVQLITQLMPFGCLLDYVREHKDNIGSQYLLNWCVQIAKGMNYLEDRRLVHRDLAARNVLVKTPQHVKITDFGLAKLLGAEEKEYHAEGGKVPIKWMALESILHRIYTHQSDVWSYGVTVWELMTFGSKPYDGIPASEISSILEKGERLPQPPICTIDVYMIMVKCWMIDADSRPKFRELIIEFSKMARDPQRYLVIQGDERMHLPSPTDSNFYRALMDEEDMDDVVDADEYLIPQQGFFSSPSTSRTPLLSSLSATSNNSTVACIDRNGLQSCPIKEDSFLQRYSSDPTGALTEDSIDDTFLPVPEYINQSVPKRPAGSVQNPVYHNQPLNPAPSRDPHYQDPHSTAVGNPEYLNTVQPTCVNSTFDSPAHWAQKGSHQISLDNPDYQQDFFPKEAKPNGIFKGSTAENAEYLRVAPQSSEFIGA
T1 sequence (P04626 with tags, fused parts or gaps INS775YVMA limits assumed): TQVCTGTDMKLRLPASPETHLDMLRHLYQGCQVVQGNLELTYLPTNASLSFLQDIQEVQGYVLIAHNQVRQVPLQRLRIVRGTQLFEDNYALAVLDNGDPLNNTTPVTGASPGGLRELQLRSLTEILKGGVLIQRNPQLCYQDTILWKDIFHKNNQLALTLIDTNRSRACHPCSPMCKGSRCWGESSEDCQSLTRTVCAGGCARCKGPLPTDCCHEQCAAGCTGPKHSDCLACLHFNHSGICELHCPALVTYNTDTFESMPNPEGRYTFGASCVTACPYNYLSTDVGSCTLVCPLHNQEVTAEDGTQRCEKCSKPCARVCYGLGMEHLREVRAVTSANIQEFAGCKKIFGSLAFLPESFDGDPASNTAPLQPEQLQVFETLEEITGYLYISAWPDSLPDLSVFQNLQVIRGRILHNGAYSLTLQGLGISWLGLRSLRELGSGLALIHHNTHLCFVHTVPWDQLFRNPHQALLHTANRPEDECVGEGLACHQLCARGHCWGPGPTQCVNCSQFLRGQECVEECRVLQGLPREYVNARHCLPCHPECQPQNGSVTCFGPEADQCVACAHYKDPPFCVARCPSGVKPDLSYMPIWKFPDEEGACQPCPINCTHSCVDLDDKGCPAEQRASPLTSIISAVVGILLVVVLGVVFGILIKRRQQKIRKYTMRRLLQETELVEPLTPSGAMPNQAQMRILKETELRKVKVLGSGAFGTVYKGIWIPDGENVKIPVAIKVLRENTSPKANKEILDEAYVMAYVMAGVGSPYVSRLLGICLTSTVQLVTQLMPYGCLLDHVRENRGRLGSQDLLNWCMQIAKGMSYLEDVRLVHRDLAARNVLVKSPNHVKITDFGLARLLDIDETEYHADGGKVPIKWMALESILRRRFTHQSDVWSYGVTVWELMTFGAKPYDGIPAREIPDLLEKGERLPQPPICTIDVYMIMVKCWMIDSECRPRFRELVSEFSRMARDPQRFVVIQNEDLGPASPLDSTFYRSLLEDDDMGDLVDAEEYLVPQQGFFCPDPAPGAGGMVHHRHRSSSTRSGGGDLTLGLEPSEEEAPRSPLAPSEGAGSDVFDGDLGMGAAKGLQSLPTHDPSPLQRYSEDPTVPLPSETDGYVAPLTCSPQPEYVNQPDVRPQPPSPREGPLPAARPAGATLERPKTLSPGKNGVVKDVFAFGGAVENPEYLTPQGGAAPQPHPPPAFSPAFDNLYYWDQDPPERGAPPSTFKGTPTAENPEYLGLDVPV
T4 sequence (P00533 with tags, fused parts or gaps DEL746-750 limits assumed): as the sequence (P00533 with tags, fused parts or gaps DEL746-750 limits assumed, stated change not applied) above

Compound | IC50 [1] [nM] | IC50 [2] [nM] | IC50 [3] [nM] | IC50 [4] [nM]
CC(C)N(c1ccccc1Nc1nc(Cl)ncc1Cl)S(C)(=O)=O [US20240343694, Example 42] | 6 | < 1 | < 1 | 
CCN(c1ccccc1Nc1nc(Cl)ncc1Cl)S(=O)(=O)CC [US20240343694, Example 43] | 8 | < 1 | < 1 | 
CS(=O)(=O)Nc1c(Cl)cccc1Nc1nc(Cl)ncc1Cl [US20240343694, Example 44] | 6 | < 1 | < 1 | 
CN(c1c(Cl)cccc1Nc1nc(Cl)ncc1Cl)S(C)(=O)=O [US20240343694, Example 45] | 8 | < 1 | < 1 | 
Cc1cccc(Nc2nc(Cl)ncc2Cl)c1NS(C)(=O)=O [US20240343694, Example 46] | 2 | < 1 | < 1 | 
CC(C)c1cccc(Nc2nc(Cl)ncc2Cl)c1N(C)S(C)(=O)=O [US20240343694, Example 47] | 6 | < 1 | < 1 | 
Cc1cccc(Nc2nc(Cl)ncc2Cl)c1N(C)S(C)(=O)=O [US20240343694, Example 48] | 20 | 7 | 3 | 
CCN(c1c(C)cccc1Nc1nc(Cl)ncc1Cl)S(C)(=O)=O [US20240343694, Example 49] | 60 | 10 | 0.1 | 
CCc1cccc(Nc2nc(Cl)ncc2Cl)c1NS(C)(=O)=O [US20240343694, Example 50] | 60 | 3 | < 1 | 
CCc1cccc(Nc2nc(Cl)ncc2Cl)c1N(C)S(C)(=O)=O [US20240343694, Example 51] | 30 | < 1 | < 1 | 
CCc1cccc(Nc2nc(Cl)ncc2Cl)c1NS(=O)(=O)CC [US20240343694, Example 52] | 4 | < 1 | < 1 | 
Cc1ccc(Nc2nc(Cl)ncc2Cl)c(NS(C)(=O)=O)c1C [US20240343694, Example 54] | 10 | < 1 | < 1 | 
Cc1ccc(Nc2nc(Cl)ncc2Cl)c(N(C)S(C)(=O)=O)c1 [US20240343694, Example 55] | < 1 | < 1 | < 1 | 
Cc1ccc(Nc2nc(Cl)ncc2Cl)c(NS(C)(=O)=O)c1 [US20240343694, Example 56] | < 1 | < 1 | < 1 | 
CS(=O)(=O)N1CCCc2cccc(Nc3nc(Cl)ncc3Cl)c21 [US20240343694, Example 57] | < 1 | < 1 | < 1 | 
C=CC(=O)Nc1cc(Nc2ncc(Cl)c(Nc3cccc4c3N(S(C)(=O)=O)CCC4)n2)c(OC)cc1N(C)CCN(C)C(=O)OC(C)(C)C [US20240343694, Example 58] | 90 | 10 | < 1 | 
C=CC(=O)Nc1cc(N)c(OC)cc1N1CCC(N(C)C)CC1 [US20240343694, Example 59] | 20 | < 1 | < 1 | 
C=CC(=O)Nc1cc(N)c(OC)cc1N1CCC(N2CCN(C)CC2)CC1 [US20240343694, Example 60] | 10 | < 1 | < 1 | 
COC(=O)c1cnc(Cl)nc1Nc1cccc2c1N(S(C)(=O)=O)CCC2 [US20240343694, Example 61] | 1 | < 1 | < 1 | 
C=C(F)C(=O)Nc1cc(N)c(OC)cc1N(C)CCN(C)C [US20240343694, Example 64] | 3 | < 1 | < 1 | 
CS(=O)(=O)N1CCc2cccc(Nc3nc(Cl)ncc3Cl)c21 [US20240343694, Example 65] | 15 | < 1 | < 1 | 
CCS(=O)(=O)N1CCc2cccc(Nc3nc(Cl)ncc3Cl)c21 [US20240343694, Example 66] | 5 | < 1 | < 1 | 
C=CC(=O)Nc1cc(Nc2ncc(Cl)c(Nc3cccc4c3N(S(C)(=O)=O)CC4)n2)c(OC)cc1N(C)CCN(C)C(=O)OC(C)(C)C [US20240343694, Example 67] | 81 | < 1 | < 1 | 
COC(=O)c1cnc(Cl)nc1Nc1cccc2c1N(S(C)(=O)=O)CC2 [US20240343694, Example 68] | 6 | < 1 | < 1 | 
CC(C)OC(=O)c1cnc(Cl)nc1Nc1cccc2c1N(S(C)(=O)=O)CC2 [US20240343694, Example 69] | 6 | < 1 |  | < 1
CS(=O)(=O)N1CCc2cccc(Nc3nc(Cl)ncc3C#N)c21 [US20240343694, Example 70] | 33 | 4 | < 1 | 
C=CC(=O)Nc1cc(N)c(OC)cc1OCCN(C)C [US20240343694, Example 71] | 61 | 5 | < 1 | 

Second part, the compound after the results:

IC50 [1] [nM] | IC50 [2] [nM] | IC50 [3] [nM] | IC50 [4] [nM] | Compound
5 | < 1 | < 1 |  | CS(=O)(=O)N1CCc2cccc(Nc3nc(Cl)ncc3C(F)(F)F)c21 [US20240343694, Example 73]
< 1 | < 1 | < 1 |  | CS(=O)(=O)n1ccc2cccc(Nc3nc(Cl)ncc3Cl)c21 [US20240343694, Example 74]
3 | < 1 | < 1 |  | CN(c1c(Nc2nc(Cl)ncc2Cl)ccc2nccnc12)S(C)(=O)=O [US20240343694, Example 75]
1 | < 1 | < 1 |  | CS(=O)(=O)Nc1c(Nc2nc(Cl)ncc2Cl)ccc2nccnc12 [US20240343694, Example 76]
2 | < 1 | < 1 |  | O=S1(=O)CCCN1c1ccccc1Nc1nc(Cl)ncc1Cl [US20240343694, Example 77]
3 | < 1 | < 1 |  | O=S1(=O)CCCCN1c1ccccc1Nc1nc(Cl)ncc1Cl [US20240343694, Example 78]
1 | < 1 | < 1 |  | C=CC(=O)Nc1cc(N)c(OC)cc1N(C)CCN1CCN(C)CC1 [US20240343694, Example 79]
1 | < 1 | < 1 |  | C=CC(=O)Nc1cc(N)c(OC)cc1OCCN1CCOCC1 [US20240343694, Example 80]
< 1 | < 1 | < 1 |  | C=CC(=O)Nc1cc(N)c(OC)cc1OCCN1CCCCC1 [US20240343694, Example 81]
2 | < 1 | < 1 |  | C=CC(=O)Nc1cc(N)c(OC)cc1N(C)CCN1CCC1 [US20240343694, Example 82]
374 | 19 | 3 |  | CC(=O)Nc1c([N+](=O)[O-])ccc(C)c1C [US20240343694, Example 83]
52 | 3 | 1 |  | CC(=O)N(C)c1c([N+](=O)[O-])ccc(C)c1C [US20240343694, Example 84]
871 | 43 | 18 |  | CC(=O)N(C)c1c(N)ccc(C)c1C [US20240343694, Example 85]
157 | 20 | 2 |  | CC(=O)N(C)c1c(Nc2nc(Cl)ncc2Cl)ccc(C)c1C [US20240343694, Example 86]
107 | 24 | 4 |  | CC(=O)Nc1c(Nc2nc(Cl)ncc2Cl)ccc(C)c1C [US20240343694, Example 87]
14 | 2 | < 1 |  | CC(=O)N(C)c1c(C)cccc1Nc1nc(Cl)ncc1Cl [US20240343694, Example 88]
479 | 77 | 20 |  | CC(=O)Nc1c(C)cccc1Nc1nc(Cl)ncc1Cl [US20240343694, Example 89]

Reference: BindingDB's records for patent US20240343694 (Korea Reserarch Institute of Chemical Technology, 2024)
